Measured values reported in paper PMC10458893, “Design of Protegrin-1 Analogs with Improved Antibacterial Selectivity” (Pharmaceutics, 2023).
In brackets after ≈: the same amount, converted by molar mass. Read-outs that look alike come from different tables or passages of the source. Positions of bridges follow the written chain, without caps; N, C: chain ends. Residues, ends and D or L forms follow the SMILES beside them.

Legend:
E. coli ATCC 25922 [1] = assay: Systemic septicemia infection mice model; type: in vivo; conditions: BALB/c mice n = 5, i.p. E. coli ATCC 25922 10^6 CFU with mucin; 10 mg/kg i.p. at 1 h and 4 h; 7 days
Protocol: Experiments were performed with male and female 8–10-week-old BALB/c mice (22–24 g, “Andreevka” laboratory animal nursery FMBA, Russia) according to the previously described method. Briefly, a total of 3 groups of 5 mice per group were infected by intraperitoneal (i.p.) injection of the bacterial inoculum (E. coli ATCC 25922), 10^6 colony forming units (CFU) per animal, in the presence of mucin. All the animals received two i.p. injections: 1 h and 4 h after bacterial challenge. The first group received ciprofloxacin (Sigma-Aldrich, St. Louis, MO, USA) as a positive control at a dose of 10 mg/kg per injection. The second group received peptide [V16R] at a dose of 5 mg/kg per injection. The third group received PBS as a vehicle control. Animals were monitored for 7 days post-infection. All the surviving mice were euthanized by CO2 asphyxiation. The spleen was aseptically removed, homogenized, serially diluted, and plated on Endo agar to detect CFU in a sample.

[2] = system: Acinetobacter baumannii (strain XDR CI 2675); type: cell-based
Protocol: (§1) The antimicrobial activity of the peptides was determined using two-fold serial dilutions in sterile 96-well flat-bottom polystyrene microplates (Eppendorf, Hamburg, Germany) (Cat. No. 0030730011), as previously described. The following strains of bacteria were used: E. coli ATCC 25922, E. coli ML35p (ATCC collection), E. coli BW 25113 (Keio collection), Pseudomonas aeruginosa PAO1 (ATCC collection), P. aeruginosa ATCC 27853, Klebsiella pneumoniae ATCC 700603, Staphylococcus aureus 209P (ATCC collection), S. aureus ATCC 29213, and Micrococcus luteus B-1314 (VKM collection). Acinetobacter baumannii (strain XDR CI 2675) was provided by the I.M. Sechenov First Moscow State Medical University hospital. After a 24 h incubation period, the metabolic activity of the bacteria was assessed by adding 20 µL of a redox indicator, resazurin (Sigma-Aldrich, St. Louis, MO, USA), at a concentration of 0.1 mg/mL, to the wells. The plate was then incubated for a further two hours. The minimum inhibitory concentration (MIC) was determined as the lowest concentration of the peptide at which no color change in the resazurin indicator was observed. The results were presented as median values, which were determined based on at least three independent experiments carried out in triplicate.

E. coli ATCC 25922 [3] = type: cell-based; conditions: ATCC 25922, 24 h
Protocol: as §1

E. coli BW 25113 = type: cell-based; conditions: two-fold serial dilutions, 24 h incubation, resazurin read-out; median of at least three independent experiments in triplicate
Protocol: as §1

E. coli ML35p = type: cell-based
Protocol: as §1

all the test strains = type: cell-based; conditions: geometric mean over the 10 test strains
Protocol: as §1

P. aeruginosa ATCC 27853 = type: cell-based, Pseudomonas aeruginosa; conditions: ATCC 27853, 24 h
Protocol: as §1

P. aeruginosa PAO1 = type: cell-based, Pseudomonas aeruginosa; conditions: PAO1, 24 h
Protocol: as §1

[4] = system: K. pneumoniae ATCC 700603; type: cell-based, Klebsiella pneumoniae; conditions: ATCC 700603, 24 h
Protocol: as §1

S. aureus 209P = type: cell-based, Staphylococcus aureus; conditions: 24 h
Protocol: as §1

S. aureus ATCC 29213 = type: cell-based, Staphylococcus aureus; conditions: ATCC 29213, 24 h
Protocol: as §1

M. luteus B-1314 = type: cell-based, Micrococcus luteus; conditions: B-1314, 24 h
Protocol: as §1

[5] = system: freshly isolated human erythrocytes (hRBCs); assay: Hemolysis assay (hemoglobin release); type: cell-based; conditions: red cells of human, 64
Source text: To assess the hemolytic activity of the compounds, freshly isolated human erythrocytes (hRBCs) were used according to the methodology described in a previous study. Melittin was used as a positive peptide control that induces significant hemolysis. Isotonic phosphate buffer (PBS) served as a negative control, while 0.1% Triton X-100 solution was used as a control for complete hemolysis.

[6] = system: human keratinocyte cell line (HaCaT); assay: Cytotoxicity MTT assay; type: cell-based; conditions: 18 h, 128
Protocol: In order to evaluate the cytotoxicity of the peptides against a human keratinocyte cell line (HaCaT, Cat. No. 300493) (Cell Lines Service, Köln, Germany), the colorimetric 3-(4,5-dimethylthiazol-2-yl)-2,5-diphenyltetrazolium bromide (MTT) dye reduction assay was performed, as described in a previous publication. Wells containing no peptide were used as a 100% survival control. Each peptide was tested in two separate experiments to ensure the reliability of the results.

[7] = strain XDR CI 2675, two-fold serial dilutions, 24 h incubation, resazurin read-out, median of at least three independent experiments in triplicate
[8] = two-fold serial dilutions, 24 h incubation, resazurin read-out, median of at least three independent experiments in triplicate

Row | Structure (SMILES) | Survival of mice (E. coli ATCC 25922 [1]) | MIC, A. baumannii [2, 7] [µM] | MIC, E. coli ATCC 25922 (E. coli ATCC 25922 [3]) [µM] | MIC, E. coli BW 25113 (E. coli BW 25113) [µM] | MIC, E. coli ML35p (E. coli ML35p; [8]) [µM] | MIC (GM), geometric mean of the peptide's MICs against all the test strains (all the test strains) [µM] | MIC, P. aeruginosa ATCC 27853 (P. aeruginosa ATCC 27853) [µM] | MIC, P. aeruginosa PAO1 (P. aeruginosa PAO1) [µM] | MIC, K. pneumoniae ATCC 700603 [4] [µM] | MIC, S. aureus 209P (S. aureus 209P) [µM] | MIC, S. aureus ATCC 29213 (S. aureus ATCC 29213) [µM] | MIC, M. luteus B-1314 (M. luteus B-1314) [µM] | Hemolytic activity, % (64 μM) [5] | Cell Viability, % (128 μM) [6] | MIC, A. baumannii ([2]; strain XDR CI 2675, 24 h) [µM] | MIC, E. coli ML35p (E. coli ML35p; ML35p, 24 h) [µM]
1 | O=C(O)c1cn(C2CC2)c2cc(N3CCNCC3)c(F)cc2c1=O [ciprofloxacin, reference compound] | survival of all mice |  |  |  |  |  |  |  |  |  |  |  |  |  |  | 
2 | CC(C)C[C@H](NC(=O)[C@H](CCCNC(=N)N)NC(=O)CNC(=O)CNC(=O)[C@@H](N)CCCNC(=N)N)C(=O)N[C@H]1CSSC[C@@H](C(=O)N[C@H](C(=O)NCC(=O)N[C@@H](CCCNC(=N)N)C(=O)O)C(C)C)NC(=O)[C@H](C(C)C)NC(=O)[C@@H]2CSSC[C@H](NC(=O)[C@H](Cc3ccc(O)cc3)NC1=O)C(=O)N[C@@H](CCCNC(=N)N)C(=O)N[C@@H](CCCNC(=N)N)C(=O)N[C@@H](CCCNC(=N)N)C(=O)N[C@@H](Cc1ccccc1)C(=O)N2 [PG-1, Protegrin-1] (H-RGGRLCYCRRRFCVCVGR-OH; disulfide 6-15, 8-13; N-terminus and C-terminus assumed) |  | 0.25 (≈ 0.539 µg/mL) | 0.5 (≈ 1.08 µg/mL) | 0.125 (≈ 0.27 µg/mL) | 0.25 (≈ 0.539 µg/mL) | 0.4 | 0.25 (≈ 0.539 µg/mL) | 0.5 (≈ 1.08 µg/mL) | 1 (≈ 2.16 µg/mL) | 0.5 (≈ 1.08 µg/mL) | 1 (≈ 2.16 µg/mL) | 0.25 (≈ 0.539 µg/mL) | 96.3 (±10.72) % | 6.1 (±2.07) % |  | 
3 | CC(C)C[C@H](NC(=O)[C@H](CCCNC(=N)N)NC(=O)CNC(=O)CNC(=O)[C@@H](N)CCCNC(=N)N)C(=O)N[C@H]1CSSC[C@@H](C(=O)N[C@@H](C)C(=O)NCC(=O)N[C@@H](CCCNC(=N)N)C(=O)O)NC(=O)[C@H](C(C)C)NC(=O)[C@@H]2CSSC[C@H](NC(=O)[C@H](Cc3ccc(O)cc3)NC1=O)C(=O)N[C@@H](CCCNC(=N)N)C(=O)N[C@@H](CCCNC(=N)N)C(=O)N[C@@H](CCCNC(=N)N)C(=O)N[C@@H](Cc1ccccc1)C(=O)N2 [[V16A]] (H-RGGRLCYCRRRFCVCAGR-OH; disulfide 6-15, 8-13; N-terminus and C-terminus assumed) |  |  | 0.5 (≈ 1.06 µg/mL) | 0.25 (≈ 0.532 µg/mL) |  | 0.4 | 0.5 (≈ 1.06 µg/mL) | 0.25 (≈ 0.532 µg/mL) | 1 (≈ 2.13 µg/mL) | 1 (≈ 2.13 µg/mL) | 1 (≈ 2.13 µg/mL) | 0.5 (≈ 1.06 µg/mL) | 47.8 (±11.96) % | 8.0 (± 5.35) % | 0.125 (≈ 0.266 µg/mL) | 0.125 (≈ 0.266 µg/mL)
4 | CC(C)C[C@H](NC(=O)[C@H](CCCNC(=N)N)NC(=O)CNC(=O)CNC(=O)[C@@H](N)CCCNC(=N)N)C(=O)N[C@H]1CSSC[C@@H](C(=O)N[C@H](C(=O)NCC(=O)N[C@@H](CCCNC(=N)N)C(=O)O)C(C)C)NC(=O)[C@H](CCCNC(=N)N)NC(=O)[C@@H]2CSSC[C@H](NC(=O)[C@H](Cc3ccc(O)cc3)NC1=O)C(=O)N[C@@H](CCCNC(=N)N)C(=O)N[C@@H](CCCNC(=N)N)C(=O)N[C@@H](CCCNC(=N)N)C(=O)N[C@@H](Cc1ccccc1)C(=O)N2 [[V14R]] (H-RGGRLCYCRRRFCRCVGR-OH; disulfide 6-15, 8-13; N-terminus and C-terminus assumed) |  |  | 4 (≈ 8.85 µg/mL) | 2 (≈ 4.43 µg/mL) |  | 9.8 | >32 | 32 (≈ 70.8 µg/mL) | 32 (≈ 70.8 µg/mL) | 32 (≈ 70.8 µg/mL) | 32 (≈ 70.8 µg/mL) | 2 (≈ 4.43 µg/mL) | 1.2 (±0.43) % | 98.6 (± 6.0) % | 2 (≈ 4.43 µg/mL) | 4 (≈ 8.85 µg/mL)
5 | CC(C)C[C@H](NC(=O)[C@H](CCCNC(=N)N)NC(=O)CNC(=O)CNC(=O)[C@@H](N)CCCNC(=N)N)C(=O)N[C@H]1CSSC[C@@H](C(=O)N[C@H](C(=O)NCC(=O)N[C@@H](CCCNC(=N)N)C(=O)O)C(C)C)NC(=O)[C@H](C(C)C)NC(=O)[C@@H]2CSSC[C@H](NC(=O)[C@H](CCCNC(=N)N)NC1=O)C(=O)N[C@@H](CCCNC(=N)N)C(=O)N[C@@H](CCCNC(=N)N)C(=O)N[C@@H](CCCNC(=N)N)C(=O)N[C@@H](Cc1ccccc1)C(=O)N2 [[Y7R]] (H-RGGRLCRCRRRFCVCVGR-OH; disulfide 6-15, 8-13; N-terminus and C-terminus assumed) |  | 0.5 (≈ 1.07 µg/mL) | 0.5 (≈ 1.07 µg/mL) | 0.5 (≈ 1.07 µg/mL) | 0.5 (≈ 1.07 µg/mL) | 2.5 | 4 (≈ 8.6 µg/mL) | 8 (≈ 17.2 µg/mL) | 8 (≈ 17.2 µg/mL) | 16 (≈ 34.4 µg/mL) | 16 (≈ 34.4 µg/mL) | 2 (≈ 4.3 µg/mL) | 2.1 (±0.53) % | 67.6 (± 8.68) % |  | 
6 | CC(C)C[C@H](NC(=O)[C@H](CCCNC(=N)N)NC(=O)CNC(=O)CNC(=O)[C@@H](N)CCCNC(=N)N)C(=O)N[C@H]1CSSC[C@@H](C(=O)N[C@H](C(=O)NCC(=O)N[C@@H](CCCNC(=N)N)C(=O)O)C(C)C)NC(=O)[C@H](C)NC(=O)[C@@H]2CSSC[C@H](NC(=O)[C@H](Cc3ccc(O)cc3)NC1=O)C(=O)N[C@@H](CCCNC(=N)N)C(=O)N[C@@H](CCCNC(=N)N)C(=O)N[C@@H](CCCNC(=N)N)C(=O)N[C@@H](Cc1ccccc1)C(=O)N2 [[V14A]] (H-RGGRLCYCRRRFCACVGR-OH; disulfide 6-15, 8-13; N-terminus and C-terminus assumed) |  |  | 0.5 (≈ 1.06 µg/mL) | 0.125 (≈ 0.266 µg/mL) |  | 0.4 | 0.25 (≈ 0.532 µg/mL) | 0.5 (≈ 1.06 µg/mL) | 1 (≈ 2.13 µg/mL) | 1 (≈ 2.13 µg/mL) | 1 (≈ 2.13 µg/mL) | 0.5 (≈ 1.06 µg/mL) | 39.0 (±10.2) % | 12.05 (± 2.8) % | 0.125 (≈ 0.266 µg/mL) | 0.25 (≈ 0.532 µg/mL)
